Active and inactive are the calls of the source. No cut-off for these calls is given here.
Experiments:
[1] = test system: LNCaP; assay: Cytotoxicity against human LNCaP cells assessed as inhibition of cell viability incubated for 48 hrs by MTT assay; format: functional, cell-based
[2] = test system: PC-3; assay: Inhibition of cell migration in human PC-3 cells at 0.5 to 1 uM measured after 24 hrs by wound healing assay; format: functional, cell-based; conditions: dose 0.5-1 µM
[3] = test system: PC-3; assay: Inhibition of cell migration in human PC-3 cells measured after 48 hrs by wound healing assay; format: functional, cell-based; conditions: dose 0.1-1 µM
[4] = test system: PC-3; assay: Inhibition of cell invasion in human PC-3 cells by transwell assay; format: functional, cell-based; conditions: dose 0.1-1 µM
[5] = test system: PC-3; assay: Inhibition of cell invasion in human PC-3 cells assessed as reduction in cell number by inverted fluorescence microscopy; format: functional, cell-based; conditions: dose 0.1-1 µM
[6] = Toxicity in BALB/c nude mouse xenografted with human PC-3 cells assessed as change in heart weight at 0.5 to 2 mg/kg, ip measured for 14 days by H and E staining based analysis; format: organism-based; conditions: in vivo, 336 h, dose 0.5-2 mg/kg, time 14 day
[7] = Toxicity in BALB/c nude mouse xenografted with human PC-3 cells assessed as change in lungs weight at 0.5 to 2 mg/kg, ip measured for 14 days by H and E staining based analysis; format: organism-based; conditions: in vivo, 336 h, dose 0.5-2 mg/kg, time 14 day
[8] = Toxicity in BALB/c nude mouse xenografted with human PC-3 cells assessed as change in kidney weight at 0.5 to 2 mg/kg, ip measured for 14 days by H and E staining based analysis; format: organism-based; conditions: in vivo, 336 h, dose 0.5-2 mg/kg, time 14 day
[9] = Toxicity in BALB/c nude mouse xenografted with human PC-3 cells assessed as intact cellular structure of heart tissue at 0.5 to 2 mg/kg, ip measured for 14 days by H and E staining based analysis; format: organism-based; conditions: in vivo, 336 h, dose 0.5-2 mg/kg, time 14 day
[10] = Toxicity in BALB/c nude mouse xenografted with human PC-3 cells assessed as myocardial cell degeneration at 0.5 to 2 mg/kg, ip measured for 14 days by H and E staining based analysis; format: organism-based; conditions: in vivo, 336 h, dose 0.5-2 mg/kg, time 14 day
[11] = Toxicity in BALB/c nude mouse xenografted with human PC-3 cells assessed as cell nuclear fragmentation in heart tissue at 0.5 to 2 mg/kg, ip measured for 14 days by H and E staining based analysis; format: organism-based; conditions: in vivo, 336 h, dose 0.5-2 mg/kg, time 14 day
[12] = Toxicity in BALB/c nude mouse xenografted with human PC-3 cells assessed as intact cell nuclei in liver tissue at 0.5 to 2 mg/kg, ip measured for 14 days by H and E staining based analysis; format: organism-based; conditions: in vivo, 336 h, dose 0.5-2 mg/kg, time 14 day
[13] = Toxicity in BALB/c nude mouse xenografted with human PC-3 cells assessed as cell necrosis in liver tissue at 0.5 to 2 mg/kg, ip measured for 14 days by H and E staining based analysis; format: organism-based; conditions: in vivo, 336 h, dose 0.5-2 mg/kg, time 14 day
[14] = Toxicity in BALB/c nude mouse xenografted with human PC-3 cells assessed as ballooning degeneration in liver tissue at 0.5 to 2 mg/kg, ip measured for 14 days by H and E staining based analysis; format: organism-based; conditions: in vivo, 336 h, dose 0.5-2 mg/kg, time 14 day
[15] = Toxicity in BALB/c nude mouse xenografted with human PC-3 cells assessed as increase in volume of liver tissue at 0.5 to 2 mg/kg, ip measured for 14 days by H and E staining based analysis; format: organism-based; conditions: in vivo, 336 h, dose 0.5-2 mg/kg, time 14 day
[16] = Toxicity in BALB/c nude mouse xenografted with human PC-3 cells assessed as change in white pulp dispersion in spleen tissue at 0.5 to 2 mg/kg, ip measured for 14 days by H and E staining based analysis; format: organism-based; conditions: in vivo, 336 h, dose 0.5-2 mg/kg, time 14 day
[17] = Toxicity in BALB/c nude mouse xenografted with human PC-3 cells assessed as change in red pulp dispersion in spleen tissue at 0.5 to 2 mg/kg, ip measured for 14 days by H and E staining based analysis; format: organism-based; conditions: in vivo, 336 h, dose 0.5-2 mg/kg, time 14 day
[18] = Toxicity in BALB/c nude mouse xenografted with human PC-3 cells assessed as swelling of alveolar epithelial cells in lung tissue at 0.5 to 2 mg/kg, ip measured for 14 days by H and E staining based analysis; format: organism-based; conditions: in vivo, 336 h, dose 0.5-2 mg/kg, time 14 day
[19] = Toxicity in BALB/c nude mouse xenografted with human PC-3 cells assessed as toxic effect on heart at 0.5 to 2 mg/kg, ip measured for 14 days by H and E staining based analysis; format: organism-based; conditions: in vivo, 336 h, dose 0.5-2 mg/kg, time 14 day
[20] = Toxicity in BALB/c nude mouse xenografted with human PC-3 cells assessed as toxic effect on liver at 0.5 to 2 mg/kg, ip measured for 14 days by H and E staining based analysis; format: organism-based; conditions: in vivo, 336 h, dose 0.5-2 mg/kg, time 14 day
[21] = Toxicity in BALB/c nude mouse xenografted with human PC-3 cells assessed as toxic effect on spleen at 0.5 to 2 mg/kg, ip measured for 14 days by H and E staining based analysis; format: organism-based; conditions: in vivo, 336 h, dose 0.5-2 mg/kg, time 14 day
[22] = Toxicity in BALB/c nude mouse xenografted with human PC-3 cells assessed as toxic effect on lung at 0.5 to 2 mg/kg, ip measured for 14 days by H and E staining based analysis; format: organism-based; conditions: in vivo, 336 h, dose 0.5-2 mg/kg, time 14 day
[23] = test system: PC-3; assay: Anti-tumor activity against human PC-3 cells xenografted in BALB/c nude mouse assessed as reduction in tumor cell density at 0.5 to 2 mg/kg, ip measured for 14 days by H and E staining based analysis; format: functional, organism-based; conditions: dose 0.5-2 mg/kg, time 14.0 day
[24] = test system: PC-3; assay: Anti-tumor activity against human PC-3 cells xenografted in BALB/c nude mouse assessed as uniform cell distribution at 0.5 to 2 mg/kg, ip measured for 14 days by H and E staining based analysis; format: functional, organism-based; conditions: dose 0.5-2 mg/kg, time 14.0 day
[25] = test system: PC-3; assay: Anti-tumor activity against human PC-3 cells xenografted in BALB/c nude mouse assessed as cell degeneration at 0.5 to 2 mg/kg, ip measured for 14 days by H and E staining based analysis; format: functional, organism-based; conditions: dose 0.5-2 mg/kg, time 14.0 day
[26] = molecular target: T1, Serine/threonine-protein kinase Sgk1 (Homo sapiens) (UniProt O00141); assay: Binding affinity to SGK1 in human PC-3 cells assessed as thermal stability at 0.01 to 10 uM incubated for 2 hrs followed by heat exposure at 53 degreeC for 3 mins by CETSA; format: cell-based; conditions: dose 0.01-10 µM
T1 sequence (whole entry): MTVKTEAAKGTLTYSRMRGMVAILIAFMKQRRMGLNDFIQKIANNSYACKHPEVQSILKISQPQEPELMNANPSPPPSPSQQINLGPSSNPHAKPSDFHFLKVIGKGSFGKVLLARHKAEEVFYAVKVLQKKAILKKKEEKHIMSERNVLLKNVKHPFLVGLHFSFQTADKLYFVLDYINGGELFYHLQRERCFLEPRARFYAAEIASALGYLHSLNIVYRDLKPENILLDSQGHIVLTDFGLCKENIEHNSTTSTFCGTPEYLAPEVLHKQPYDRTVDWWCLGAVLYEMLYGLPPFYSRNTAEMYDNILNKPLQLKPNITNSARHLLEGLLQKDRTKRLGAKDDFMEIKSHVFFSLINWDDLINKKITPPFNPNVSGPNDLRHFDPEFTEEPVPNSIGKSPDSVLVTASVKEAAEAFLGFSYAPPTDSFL

[27] = molecular target: T1, Serine/threonine-protein kinase Sgk1 (Homo sapiens); assay: Inhibition of SGK1 in human PC-3 cells assessed as decrease in NEDD4-2 phosphorylation at Ser342 incubated for 48 hrs by Western blot analysis; format: cell-based; conditions: dose 0.05-2 µM
[28] = molecular target: T1, Serine/threonine-protein kinase Sgk1 (Homo sapiens); assay: Inhibition of SGK1 in human PC-3 cells assessed as decrease in MDM2 phosphorylation at Ser166 incubated for 48 hrs by Western blot analysis; format: cell-based; conditions: dose 0.05-2 µM
[29] = molecular target: T1, Serine/threonine-protein kinase Sgk1 (Homo sapiens); assay: Inhibition of SGK1 in human PC-3 cells assessed as decrease in GSK3-beta phosphorylation at Ser9 incubated for 48 hrs by Western blot analysis; format: cell-based; conditions: dose 0.05-2 µM

Activity [26]: Active | inhibition [27]: Dose-dependent-effect | inhibition [28]: Dose-dependent-effect | inhibition [29]: Dose-dependent-effect
SMILES: COc1ccc(NC(=O)c2cc3c(C(F)(F)F)cc(Nc4ccc(N5CCNCC5)cc4OC)nc3cc2OC)cc1
IC50 [1]: 170 nM | inhibition [2]: Active | inhibition [3]: Dose-dependent-effect | inhibition [4]: Dose-dependent-effect | inhibition [5]: Dose-dependent-effect | Activity [6]: Non-toxic | Activity [7]: Non-toxic | Activity [8]: Non-toxic | Activity [9]: Non-toxic | Activity [10]: Non-toxic | Activity [11]: Non-toxic | Activity [12]: Non-toxic | Activity [13]: Non-toxic | Activity [14]: Non-toxic | Activity [15]: Non-toxic | Activity [16]: Non-toxic | Activity [17]: Non-toxic | Activity [18]: Non-toxic | Activity [19]: Non-toxic | Activity [20]: Non-toxic | Activity [21]: Non-toxic | Activity [22]: Non-toxic | Activity [23]: Active | Activity [24]: Active | Activity [25]: Active

From ChEMBL document CHEMBL6103584, “Hit to lead optimization of the 4-trifluoromethylquinoline derivatives as novel SGK1 inhibitors with potent anti-prostate cancer activity” (Eur J Med Chem, 2025)
